Among the data in PubChem BioAssay (NCI) are GI50 and TGI values, retold here.

Among the test systems are SK-MEL-28 melanoma; LOX IMVI melanoma; RPMI-8226 leukemia; OVCAR-8 ovarian; CCRF-CEM leukemia; OVCAR-4 ovarian; SF-268 CNS; MCF7 breast; SW-620 colon; UACC-62 melanoma.
Assay in all cases: NCI anticancer screen, dose series, 48 h

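Results reflect a 48-hour exposure of cells in 96-well plates to compound at five concentrations. GI50 = concentration required for 50% inhibition of growth. The concentration for full growth arrest is given as TGI.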

As for `OCCCCC#Cc1ccccc1C#Cc1ccccc1C(F)(F)F`, the GI50 in the experiment on SK-MEL-28 melanoma is 13.2 µM; in the experiment on LOX IMVI melanoma, 4.99 µM; in the experiment on RPMI-8226 leukemia, 3.84 µM; in the experiment on OVCAR-8 ovarian it was 13.3 µM; in the experiment with CCRF-CEM leukemia, 3.91 µM; in the experiment on OVCAR-4 ovarian it was 18.4 µM. Also, the GI50 in the experiment with SF-268 CNS is 17.4 µM; in the experiment on MCF7 breast, 10.6 µM; with SW-620 colon, 4.35 µM; with UACC-62 melanoma, 11.3 µM. In addition, the TGI was 28.5 µM in the experiment with SK-MEL-28 melanoma; 18.5 µM in the experiment with LOX IMVI melanoma; 26 µM in the experiment with RPMI-8226 leukemia; 31.6 µM with OVCAR-8 ovarian; 17.2 µM with CCRF-CEM leukemia; 36.4 µM in the experiment with OVCAR-4 ovarian. The TGI stood at 33.7 µM with SF-268 CNS, 31.6 µM in the experiment on MCF7 breast, 16.4 µM with SW-620 colon and 23.5 µM in the experiment with UACC-62 melanoma.
On to `CC(=O)OC(C)(C)/C=C/C(=O)[C@](C)(O)[C@H]1[C@H](O)C[C@@]2(C)[C@@H]3CC=C4[C@@H](C[C@H](O)C(=O)C4(C)C)[C@]3(C)C(=O)C[C@]12C`, for which the TGI was < 0.01 µM in the experiment on SK-MEL-28 melanoma; < 0.01 µM with LOX IMVI melanoma; < 0.01 µM in the experiment on RPMI-8226 leukemia; 5.8 µM with OVCAR-8 ovarian; 0.423 µM in the experiment with CCRF-CEM leukemia; < 0.01 µM with OVCAR-4 ovarian. Besides, the TGI with SF-268 CNS was < 0.01 µM; with MCF7 breast, 7.66 µM; with SW-620 colon, 7.54 µM; with UACC-62 melanoma it was 2.17 µM.
In the case of `CCN(CC)CCOc1ccc(/C=C2\CC3C4CC=C5C[C@@H](N6CCCC6)CC[C@]5(C)C4CC[C@]3(C)[C@H]2O)cc1OC` (stereo not given in full), the GI50 in the experiment with SK-MEL-28 melanoma was 20.5 µM; with LOX IMVI melanoma it was 1.92 µM; in the experiment with RPMI-8226 leukemia it was 2.24 µM; in the experiment with OVCAR-8 ovarian, 5.16 µM; with CCRF-CEM leukemia, 1.14 µM; in the experiment on OVCAR-4 ovarian it was 24 µM. Besides, the GI50 in the experiment on SF-268 CNS is 11.8 µM; with MCF7 breast it was 4.45 µM; in the experiment on SW-620 colon it was 0.624 µM; with UACC-62 melanoma it was 16.6 µM. Also, the TGI in the experiment with SK-MEL-28 melanoma is > 65.7 µM; in the experiment with LOX IMVI melanoma, 5.28 µM; in the experiment on RPMI-8226 leukemia, 6.34 µM; in the experiment on OVCAR-8 ovarian, > 40.8 µM; in the experiment with CCRF-CEM leukemia it was 4.77 µM; in the experiment with OVCAR-4 ovarian, > 82.3 µM. The TGI in the experiment on SF-268 CNS was > 76.6 µM; with MCF7 breast, > 59 µM; in the experiment on SW-620 colon it was 7.38 µM; in the experiment on UACC-62 melanoma it was 34.6 µM.
As for `N=C(N)CCCCCCCCC(=N)N`, the GI50 in the experiment on SK-MEL-28 melanoma was 58.1 µM; in the experiment with LOX IMVI melanoma, 31.8 µM; in the experiment with RPMI-8226 leukemia, 31.1 µM; in the experiment with OVCAR-8 ovarian it was 10.9 µM; in the experiment on CCRF-CEM leukemia, 44.6 µM; with OVCAR-4 ovarian, 44.4 µM. Also, the GI50 in the experiment on SF-268 CNS was 42.6 µM; in the experiment with MCF7 breast, 25.7 µM; with SW-620 colon, 32.5 µM; with UACC-62 melanoma, 64.8 µM. The TGI with SK-MEL-28 melanoma, in the experiment with LOX IMVI melanoma, in the experiment on RPMI-8226 leukemia, in the experiment on OVCAR-8 ovarian, in the experiment on CCRF-CEM leukemia and in the experiment with OVCAR-4 ovarian was > 100 µM each time. Further, the TGI in the experiment with SF-268 CNS, in the experiment with MCF7 breast, with SW-620 colon and in the experiment on UACC-62 melanoma was > 100 µM throughout.
In the case of `CC[N+](CC)(CC)CCCn1c2c(c3ccccc3c1=O)C(=O)c1ccccc1-2`, the GI50 is 29.2 µM in the experiment with SK-MEL-28 melanoma; 4.63 µM with LOX IMVI melanoma; 5.2 µM with RPMI-8226 leukemia; 3.66 µM in the experiment with OVCAR-8 ovarian; 2.99 µM in the experiment on CCRF-CEM leukemia; 55.3 µM in the experiment on OVCAR-4 ovarian. Moreover, the GI50 in the experiment on SF-268 CNS was 3.42 µM; in the experiment with MCF7 breast it was 2.89 µM; in the experiment with SW-620 colon, 4.24 µM; in the experiment on UACC-62 melanoma, 9.31 µM. Further, the TGI was > 100 µM in the experiment on SK-MEL-28 melanoma; > 100 µM with LOX IMVI melanoma; > 100 µM with RPMI-8226 leukemia; 22.8 µM with OVCAR-8 ovarian; 23.6 µM in the experiment on CCRF-CEM leukemia; > 100 µM in the experiment with OVCAR-4 ovarian. For the same compound, the TGI in the experiment on SF-268 CNS is 24.4 µM; with MCF7 breast, 7.4 µM; with SW-620 colon, > 100 µM; with UACC-62 melanoma it was 29.3 µM.
In the case of `Cc1cc2c(F)c(Oc3ncnn4cc(OC[C@@H](C)OC(=O)[C@H](C)N)c(C)c34)ccc2[nH]1`, the GI50 was 12.9 µM in the experiment with SK-MEL-28 melanoma; 3.75 µM with LOX IMVI melanoma; 5.94 µM in the experiment on RPMI-8226 leukemia; 8.96 µM with OVCAR-8 ovarian; 5.96 µM in the experiment on CCRF-CEM leukemia; 11.3 µM with OVCAR-4 ovarian. For the same compound, the GI50 is 8 µM with SF-268 CNS, 8.58 µM in the experiment on MCF7 breast, 6.33 µM with SW-620 colon and 8.67 µM in the experiment on UACC-62 melanoma. The TGI with SK-MEL-28 melanoma came out at 25.7 µM; in the experiment with LOX IMVI melanoma, 18.1 µM; with RPMI-8226 leukemia, 23.7 µM; in the experiment with OVCAR-8 ovarian, 23.1 µM; in the experiment on CCRF-CEM leukemia, 23.1 µM; in the experiment on OVCAR-4 ovarian, 23.8 µM. Also, the TGI with SF-268 CNS was 23.5 µM; in the experiment on MCF7 breast, 24 µM; in the experiment on SW-620 colon, 19.7 µM; with UACC-62 melanoma, 21.9 µM.
For `Nc1ccccc1C#C/C=C\C#Cc1ccc(Cl)cc1Cl`, the GI50 in the experiment with SK-MEL-28 melanoma is 27 µM; with LOX IMVI melanoma, 11 µM; in the experiment on RPMI-8226 leukemia, 0.89 µM; in the experiment with OVCAR-8 ovarian, 19.1 µM; in the experiment on CCRF-CEM leukemia, 0.376 µM; in the experiment with OVCAR-4 ovarian, 28.5 µM. Further, the GI50 with SF-268 CNS is 4.38 µM; in the experiment on MCF7 breast, 3.52 µM; with SW-620 colon, 34.8 µM; in the experiment on UACC-62 melanoma, 14.5 µM. For the same compound, the TGI with SK-MEL-28 melanoma is > 100 µM; with LOX IMVI melanoma, 26.5 µM; with RPMI-8226 leukemia, 30.5 µM; with OVCAR-8 ovarian it was 41.5 µM; in the experiment with CCRF-CEM leukemia it was 10.6 µM; in the experiment on OVCAR-4 ovarian, > 100 µM. For the same compound, the TGI in the experiment with SF-268 CNS is 23.7 µM; in the experiment on MCF7 breast, 39.7 µM; with SW-620 colon it was > 100 µM; with UACC-62 melanoma, 31.7 µM.
Consider `CC1(C)N=C(N)N=C(N)N1c1cc(Cl)ccc1Cl`, for which the GI50 in the experiment on SK-MEL-28 melanoma is > 100 µM; in the experiment with LOX IMVI melanoma it was > 100 µM; in the experiment with RPMI-8226 leukemia, > 100 µM; in the experiment with OVCAR-8 ovarian, > 100 µM; in the experiment on CCRF-CEM leukemia, > 100 µM; in the experiment on OVCAR-4 ovarian, 86.8 µM. In addition, the GI50 in the experiment on SF-268 CNS was > 100 µM; in the experiment with MCF7 breast it was > 100 µM; with SW-620 colon, 74.5 µM; in the experiment with UACC-62 melanoma, > 100 µM. Besides, the TGI with SK-MEL-28 melanoma, in the experiment with LOX IMVI melanoma, with RPMI-8226 leukemia, in the experiment on OVCAR-8 ovarian, with CCRF-CEM leukemia and with OVCAR-4 ovarian was > 100 µM in each case. Besides, the TGI with SF-268 CNS, in the experiment on MCF7 breast, in the experiment with SW-620 colon and with UACC-62 melanoma was > 100 µM throughout.
Consider `COc1ccc2[nH]c(Cl)c(/C=C3/C(=O)N(C)c4ccccc43)c2c1`, for which the GI50 was > 100 µM with SK-MEL-28 melanoma; > 100 µM in the experiment on LOX IMVI melanoma; > 100 µM in the experiment with RPMI-8226 leukemia; > 100 µM in the experiment with OVCAR-8 ovarian; 43.6 µM in the experiment with CCRF-CEM leukemia; > 100 µM in the experiment with OVCAR-4 ovarian. The GI50 was > 100 µM with SF-268 CNS, > 100 µM in the experiment on MCF7 breast, 96.6 µM in the experiment on SW-620 colon and 71 µM with UACC-62 melanoma. In addition, the TGI with SK-MEL-28 melanoma, in the experiment on LOX IMVI melanoma, in the experiment with RPMI-8226 leukemia, in the experiment with OVCAR-8 ovarian, with CCRF-CEM leukemia and with OVCAR-4 ovarian was > 100 µM each time. Moreover, the TGI in the experiment on SF-268 CNS, with MCF7 breast, in the experiment on SW-620 colon and in the experiment on UACC-62 melanoma was > 100 µM each time.
